A short description of data set [1]: Inhibition of recombinant full length HCV genotype 1b NS3/4A protease by FRET assay. More on the design: species or system Hepatitis C virus subtype 1b.
Another data set concerns Hepatitis C virus. Briefly: Antiviral activity against HCV genotype 1b infected in human HuH7 cells after 3 days by luciferase assay. The format is functional, organism-based, Hepacivirus hominis. The note with it: Huh-7, 72 h.
A short description of data set [2]: Cytotoxicity against human HuH7 cells by colorimetric proliferation assay. The format is cell-based, Huh-7.
Data set [3] is described as follows: Intrinsic clearance in rat liver microsomes. The note with it: read-out: CLH. The format is ADME. On the technique in general: Liver microsomes are vesicles of endoplasmic reticulum, rich in cytochrome P450 enzymes.
The nature of data set [4]: Half life in rat liver microsomes. The format is ADME.
The nature of data set [5]: Intrinsic clearance in rat cryopreserved hepatocytes assessed per 10^6 cells. The format is ADME, cell-based, Hepatocyte. The settings on record: read-out: CLH.
The nature of data set [6]: Intrinsic clearance in human liver microsomes. The format is ADME. The settings on record: read-out: CLH.
A short description of data set [7]: Intrinsic clearance in monkey liver microsomes. The format is ADME, Macaca mulatta. The settings on record: rhesus monkey, read-out: CLH.
Data set [8] in a line: Cmax in Sprague-Dawley rat plasma at 2 mg/kg, iv administered as single dose measured after 8 hrs. The format is ADME, organism-based. Also noted: dose 2 mg/kg, route intravenous.
Data set [9] is described as follows: Tmax in Sprague-Dawley rat at 2 mg/kg, iv administered as single dose. The format is ADME, organism-based. The settings on record: in vivo.
Data set [10] is described as follows: AUCt in Sprague-Dawley rat at 2 mg/kg, iv administered as single dose. The format is ADME, organism-based. The note with it: in vivo.
A short description of data set [11]: Half life in Sprague-Dawley rat at 2 mg/kg, iv administered as single dose. The format is ADME, organism-based. The settings on record: in vivo.
A short description of data set [12]: Clearance in Sprague-Dawley rat at 2 mg/kg, iv administered as single dose. The note with it: in vivo. The format is ADME, organism-based.
The nature of data set [13]: Cmax in Sprague-Dawley rat plasma at 10 mg/kg, po administered as single dose measured after 24 hrs. The format is ADME, organism-based. Also noted: dose 10 mg/kg, route oral.
A short description of data set [14]: Tmax in Sprague-Dawley rat at 10 mg/kg, po administered as single dose. The format is ADME, organism-based. The note with it: in vivo.
Data set [15] can be described thus: AUCt in Sprague-Dawley rat at 10 mg/kg, po administered as single dose. The format is ADME, organism-based. The settings on record: in vivo.
A short description of data set [16]: AUC (infinity) in Sprague-Dawley rat at 10 mg/kg, po administered as single dose. The format is ADME, organism-based. Also noted: dose 10 mg/kg, time infinity, route oral. The note with it: in vivo.
A short description of data set [17]: AUC (infinity) in Sprague-Dawley rat at 2 mg/kg, iv administered as single dose. More on the design: dose 2 mg/kg, route intravenous, time infinity. The note with it: in vivo. The format is ADME, organism-based.
The nature of data set [18]: Half life in Sprague-Dawley rat at 10 mg/kg, po administered as single dose. The format is ADME, organism-based. The note with it: in vivo.
The nature of data set [19]: Oral bioavailability in Sprague-Dawley rat at 10 mg/kg administered as single dose. The format is ADME, organism-based. The settings on record: in vivo.

Molecules are shown by their SMILES. pEC50, pIC50: −log10 of the molar value.

As to `COc1ccc2c(O[C@H]3C[C@H]4C(=O)N(C)CCCC/C=C/[C@@H]5C[C@@]5(C(=O)NS(=O)(=O)C5(C)CC5)NC(=O)N4C3)cc(-c3nc(C(F)(F)F)cs3)nc2c1C`, the pIC50 (as a rule, the negative decadic logarithm of the IC50, by convention in mol/L) in data set [1] was 9.30. Besides, the pEC50 – broadly, the negative decadic logarithm of the EC50, by convention in mol/L – with Hepatitis C virus is 7.89. Moreover, the CC50 (as a rule, the concentration at which the toxic effect on the cells reaches its halfway point) in data set [2] stood at 75000 nM. The microsomal CLint worked out at 11.4 µL/min/mg in data set [3], 24 µL/min/mg in data set [6] and 46.7 µL/min/mg in [7]. For the same molecule, the half-life (as a rule, how long it takes for the measured level to halve) in data set [4] was 2.03 h; in data set [11] it was 1.5 h; in data set [18], 5.2 h. In addition, in data set [5], the hepatocyte CLint worked out at 17.4 µL/min/1e6 cells. The Cmax – broadly, the maximum level reached in the sampled fluid or tissue – was 2670 ng/mL in data set [8] and 406 ng/mL in [13]. In addition, the time to peak (Tmax) (as a rule, the time from dosing to the highest level) in data set [9] stood at 4.8 min; in data set [14], 1 h. Moreover, the AUC(0-t) – broadly, the area under the concentration-time curve up to a stated or last time point – in data set [10] stood at 2540 ng·h/mL; in data set [15], 2230 ng·h/mL. The clearance – broadly, the volume of plasma or blood freed of the substance per unit of time – in data set [12] is 13.2 mL/min/kg. In addition, the AUC(0-inf) (usually the area under the concentration-time curve extrapolated to infinity) came to 2380 ng·h/mL in data set [16] and 2570 ng·h/mL in [17]. The bioavailability (as a rule, the share of a dose that reaches the circulation, judged against a reference dose that is usually intravenous) in [19] came out at 18%.

These data come from ChEMBL document CHEMBL3632591, “Discovery and structural diversity of the hepatitis C virus NS3/4A serine protease inhibitor series leading to clinical candidate IDX320” (Bioorg Med Chem Lett, 2015).
